Assay results as given in patent US9169254B2, “Spiroimidazolone derivative” (Chugai Seiyaku Kabushiki Kaisha, priority 2009, dated 2015).

Molecular target: T1, human PTH1 receptor (Homo sapiens, UniProt Q03431)
T1 sequence (Q03431 27-593): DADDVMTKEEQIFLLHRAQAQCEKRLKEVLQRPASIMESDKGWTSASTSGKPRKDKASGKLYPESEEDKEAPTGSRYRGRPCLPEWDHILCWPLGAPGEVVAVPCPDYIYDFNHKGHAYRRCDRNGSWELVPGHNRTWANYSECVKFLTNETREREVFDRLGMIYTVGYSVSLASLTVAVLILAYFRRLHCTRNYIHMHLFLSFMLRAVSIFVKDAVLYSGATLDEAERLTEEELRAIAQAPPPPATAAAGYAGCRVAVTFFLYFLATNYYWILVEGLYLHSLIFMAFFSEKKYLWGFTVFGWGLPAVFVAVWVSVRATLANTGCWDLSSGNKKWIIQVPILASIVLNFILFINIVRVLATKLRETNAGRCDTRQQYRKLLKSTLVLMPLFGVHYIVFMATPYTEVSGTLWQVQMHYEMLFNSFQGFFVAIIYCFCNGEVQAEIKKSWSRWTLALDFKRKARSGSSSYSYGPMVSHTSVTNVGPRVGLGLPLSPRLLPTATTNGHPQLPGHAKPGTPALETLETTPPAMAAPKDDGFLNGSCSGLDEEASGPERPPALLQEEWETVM
Experiment: In vitro cAMP signal activity in HKRK-B7 cells (LLC-PK1 cells overexpressing the human PTH1 receptor)
Format: cell-based
Settings: HKRK-B7 cells; compound at 1×10^−3 M; cAMP produced as percentage of that produced by hPTH(1-34) at 100 nM

Row | Structure (SMILES) | cAMP production activity (%)
1 | [2H]C([2H])([2H])N(C(=O)OC(C)(C)C)c1cc(C)c(/C=C/S(=O)(=O)N2CCC3(CC2)N=C(c2ccc(F)c(C(F)(F)F)c2)NC3=O)c(C)c1 [Compound 640, (4-{(E)-2-[2-(4-fluoro-3-trifluoromethyl-phenyl)-4-oxo-1,3,8-triaza-spiro[4.5]dec-1-ene-8-sulfonyl]-vinyl}-3,5-dimethyl-phenyl)-[1,1,1-^2H3]methyl-carbamic acid tert-butyl ester] | 26
2 | Cc1cc(C(=O)N2CCC(O)(CF)CC2)cc(C)c1/C=C/S(=O)(=O)N1CCC2(CC1)N=C(c1ccc(F)c(C(F)(F)F)c1)NC2=O [Compound 641, 8-{(E)-2-[4-(4-fluoromethyl-4-hydroxy-piperidine-1-carbonyl)-2,6-dimethyl-phenyl]-ethenesulfonyl}-2-(4-fluoro-3-trifluoromethyl-phenyl)-1,3,8-triaza-spiro[4.5]dec-1-en-4-one] | 85
3 | Cc1cc(C(=O)N2CCC(C)(O)CC2)cc(C)c1/C=C/S(=O)(=O)N1CCC2(CC1)N=C(c1ccc(F)c(C(F)(F)F)c1)NC2=O [Compound 642, 2-(4-fluoro-3-trifluoromethyl-phenyl)-8-{(E)-2-[4-(4-hydroxy-4-methyl-piperidine-1-carbonyl)-2,6-dimethyl-phenyl]-ethenesulfonyl}-1,3,8-triaza-spiro[4.5]dec-1-en-4-one] | 87
4 | O=C1NC(c2ccc(F)c(C(F)(F)F)c2)=NC12CCN(S(=O)(=O)/C=C/c1cccc3c1ccn3C[C@H](O)CO)CC2 [Compound 643, 8-{(E)-2-[1-((S)-2,3-dihydroxy-propyl)-1H-indol-4-yl]-ethenesulfonyl}-2-(4-fluoro-3-trifluoromethyl-phenyl)-1,3,8-triaza-spiro[4.5]dec-1-en-4-one] | 94
5 | Cc1cc(C(=O)N2CCC3(CC2)COC3)cc(C)c1/C=C/S(=O)(=O)N1CCC2(CC1)N=C(c1ccc(F)c(C(F)(F)F)c1)NC2=O [Compound 644, 8-{(E)-2-[2,6-dimethyl-4-(2-oxa-7-aza-spiro[3.5]nonane-7-carbonyl)-phenyl]-ethenesulfonyl}-2-(4-fluoro-3-trifluoromethyl-phenyl)-1,3,8-triaza-spiro[4.5]dec-1-en-4-one] | 75
6 | O=C1NC(C2CCCCC2)=NC12CCN(S(=O)(=O)CCc1cccc3c1CCCN3)CC2 [Compound 645, 2-Cyclohexyl-8-[2-(1,2,3,4-tetrahydro-quinolin-5-yl)-ethanesulfonyl]-1,3,8-triaza-spiro[4.5]dec-1-en-4-one] | 55
7 | N#Cc1c[nH]c2cccc(CCS(=O)(=O)N3CCC4(CC3)N=C(C3CCCCC3)NC4=O)c12 [Compound 646, 4-[2-(2-cyclohexyl-4-oxo-1,3,8-triaza-spiro[4.5]dec-1-ene-8-sulfonyl)-ethyl]-1H-indole-3-carbonitrile] | 99
8 | CN(C)C(=O)n1ccc2cccc(CCS(=O)(=O)N3CCC4(CC3)N=C(C3CCCCC3)NC4=O)c21 [Compound 647, 7-[2-(2-cyclohexyl-4-oxo-1,3,8-triaza-spiro[4.5]dec-1-ene-8-sulfonyl)-ethyl]-indole-1-carboxylic acid dimethylamide] | 104
9 | O=C1NC(C2CCCCC2)=NC12CCN(S(=O)(=O)CCc1cccc3ncccc13)CC2 [Compound 648, 2-cyclohexyl-8-(2-quinolin-5-yl-ethanesulfonyl)-1,3,8-triaza-spiro[4.5]dec-1-en-4-one] | 61
10 | O=C(c1c[nH]c2cccc(CCS(=O)(=O)N3CCC4(CC3)N=C(C3CCCCC3)NC4=O)c12)C(F)(F)F [Compound 649, 2-cyclohexyl-8-{2-[3-(2,2,2-trifluoro-acetyl)-1H-indol-4-yl]-ethanesulfonyl}-1,3,8-triaza-spiro[4.5]dec-1-en-4-one] | 40
11 | CC(C)n1ccc2c(CCS(=O)(=O)N3CCC4(CC3)N=C(C3CCCCC3)NC4=O)cccc21 [Compound 650, 2-cyclohexyl-8-[2-(1-isopropyl-1H-indol-4-yl)-ethanesulfonyl]-1,3,8-triaza-spiro[4.5]dec-1-en-4-one] | 55
12 | O=C1NC(C2CCCCC2)=NC12CCN(S(=O)(=O)CCc1cccc3c1ccn3CCCCO)CC2 [Compound 651, 2-cyclohexyl-8-{2-[1-(4-hydroxy-butyl)-1H-indol-4-yl]-ethanesulfonyl}-1,3,8-triaza-spiro[4.5]dec-1-en-4-one] | 54
13 | CC(=O)Nc1ccc(CCS(=O)(=O)N2CCC3(CC2)N=C(C2CCCCC2)NC3=O)c(C#N)c1 [Compound 652, N-{3-cyano-4-[2-(2-cyclohexyl-4-oxo-1,3,8-triaza-spiro[4.5]dec-1-ene-8-sulfonyl)-ethyl]-phenyl}-acetamide] | 63
14 | O=C1NC(c2cccc(OC(F)(F)F)c2)=NC12CCN(S(=O)(=O)CCc1cccc3cnccc13)CC2 [Compound 653, 8-(2-Isoquinolin-5-yl-ethanesulfonyl)-2-(3-trifluoromethoxy-phenyl)-1,3,8-triaza-spiro[4.5]dec-1-en-4-one] | 67
15 | O=C1NC(c2cccc(OC(F)(F)F)c2)=NC12CCN(S(=O)(=O)CCc1cccc3ncccc13)CC2 [Compound 654, 8-(2-quinolin-5-yl-ethanesulfonyl)-2-(3-trifluoromethoxy-phenyl)-1,3,8-triaza-spiro[4.5]dec-1-en-4-one] | 50
16 | COc1cc(NC(C)=O)ccc1CCS(=O)(=O)N1CCC2(CC1)N=C(C1CCC(C)CC1)NC2=O (centres unmarked) [Compound 655, N-(3-Methoxy-4-{2-[2-(4-methyl-cyclohexyl)-4-oxo-1,3,8-triaza-spiro[4.5]dec-1-ene-8-sulfonyl]-ethyl}-phenyl)-acetamide] | 74
17 | Cc1cc(N2C(C)(C)C(=O)NS2(=O)=O)cc(C)c1CCS(=O)(=O)N1CCC2(CC1)N=C(C1CCC(C)CC1)NC2=O (centres unmarked) [Compound 656, 8-{2-[4-(3,3-dimethyl-1,1,4-trioxo-1λ^6-[1,2,5]thiadiazolidin-2-yl)-2,6-dimethyl-phenyl]-ethanesulfonyl}-2-(4-methyl-cyclohexyl)-1,3,8-triaza-spiro[4.5]dec-1-en-4-one] | 14
18 | CCCCCCCCCC1=NC2(CCN(S(=O)(=O)CCc3ccc(N4CCOCC4=O)cc3C)CC2)C(=O)N1 [Compound 657, 8-{2-[2-Methyl-4-(3-oxo-morpholin-4-yl)-phenyl]-ethanesulfonyl}-2-nonyl-1,3,8-triaza-spiro[4.5]dec-1-en-4-one] | 124
19 | CC(C)COC(=O)NCc1ccc(CCS(=O)(=O)N2CCC3(CC2)N=C(C2CCCCC2)NC3=O)cc1 [Compound 658, {4-[2-(2-Cyclohexyl-4-oxo-1,3,8-triaza-spiro[4.5]dec-1-ene-8-sulfonyl)-ethyl]-benzyl}-carbamic acid isobutyl ester] | 84
20 | O=C(CO)NCc1ccc(CCS(=O)(=O)N2CCC3(CC2)N=C(C2CCCCC2)NC3=O)cc1 [Compound 659, N-{4-[2-(2-cyclohexyl-4-oxo-1,3,8-triaza-spiro[4.5]dec-1-ene-8-sulfonyl)-ethyl]-benzyl}-2-hydroxy-acetamide] | 46
21 | O=C(CNc1ccc(CCS(=O)(=O)N2CCC3(CC2)N=C(C2CCCCC2)NC3=O)c(C(F)(F)F)c1)NCCCCO [Compound 660, 2-{4-[2-(2-cyclohexyl-4-oxo-1,3,8-triaza-spiro[4.5]dec-1-ene-8-sulfonyl)-ethyl]-3-trifluoromethyl-phenylamino}-N-(4-hydroxy-butyl)-acetamide] | 60
22 | CC(C)COC(=O)Nc1ccc(CCS(=O)(=O)N2CCC3(CC2)N=C(C2CCCCC2)NC3=O)c(C(F)(F)F)c1 [Compound 661, {4-[2-(2-cyclohexyl-4-oxo-1,3,8-triaza-spiro[4.5]dec-1-ene-8-sulfonyl)-ethyl]-3-trifluoromethyl-phenyl}-carbamic acid isobutyl ester] | 45
23 | O=C(Nc1ccc(CCS(=O)(=O)N2CCC3(CC2)N=C(C2CCCCC2)NC3=O)c(C(F)(F)F)c1)c1ccccc1 [Compound 662, N-{4-[2-(2-cyclohexyl-4-oxo-1,3,8-triaza-spiro[4.5]dec-1-ene-8-sulfonyl)-ethyl]-3-trifluoromethyl-phenyl}-benzamide] | 23
24 | O=C1NC(C2CCCCC2)=NC12CCN(S(=O)(=O)CCc1ccc3[nH]c(=O)sc3c1)CC2 [Compound 663, 2-cyclohexyl-8-[2-(2-oxo-2,3-dihydro-benzothiazol-6-yl)-ethanesulfonyl]-1,3,8-triaza-spiro[4.5]dec-1-en-4-one] | 27
25 | CC(=O)NCCNS(=O)(=O)c1ccc(CCS(=O)(=O)N2CCC3(CC2)N=C(C2CCCCC2)NC3=O)c(C)c1 [Compound 664, N-(2-{4-[2-(2-cyclohexyl-4-oxo-1,3,8-triaza-spiro[4.5]dec-1-ene-8-sulfonyl)-ethyl]-3-methyl-benzenesulfonylamino}-ethyl)-acetamide] | 77
26 | Cc1cc(NCC(=O)NCCN(C)C)ccc1CCS(=O)(=O)N1CCC2(CC1)N=C(c1cccc(OC(F)(F)F)c1)NC2=O [Compound 665, N-(2-Dimethylamino-ethyl)-2-(3-methyl-4-{2-[4-oxo-2-(3-trifluoromethoxy-phenyl)-1,3,8-triaza-spiro[4.5]dec-1-ene-8-sulfonyl]-ethyl}-phenylamino)-acetamide] | 54
